Data as given in patent publication US11446287B2, “Compounds and methods for EP300 or CBP modulation and indications therefor” (Opna Immuno-Oncology SA, priority 2019, dated 2022).

biological target: T1, Recombinant human CBP containing the bromodomain (CBP-BD (1043-1159)) (Homo sapiens, UniProt Q92793); assay: CBP Alphascreen binding assay; settings: read-out: CREBBP (CBP) IC50
T1 construct: Recombinant human CBP bromodomain (CBP-BD (1043-1159)); made in house; host or cells: E. coli BL21-CodonPlus (DE3), modified pET vector
T1 sequence (Q92793 1081-1197): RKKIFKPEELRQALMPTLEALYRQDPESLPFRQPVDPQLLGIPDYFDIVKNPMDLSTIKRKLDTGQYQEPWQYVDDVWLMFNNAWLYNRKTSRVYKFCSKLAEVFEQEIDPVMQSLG
Method in brief: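 Buffer: 50 mM HEPES pH 7.5, 50 mM NaCl, 0.01% BSA, 0.01% Triton X-100, 2 mM DTT. The signal was normalised to plate controls and fitted with a four-parameter curve to give IC50.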

SMILES | IC50 [nM]
Cc1noc(C)c1-c1cnc2c(c1)c(-c1ccc(C(=O)O)cc1OC(F)(F)F)cn2-c1cnc(C2CC2)nc1 [P-0384, 4-(1-(2-cyclopropylpyrimidin-5-yl)-5-(3,5-dimethylisoxazol-4-yl)-1H-pyrrolo[2,3-b]pyridin-3-yl)-3-(trifluoromethoxy)benzoic acid] | 0.1 to 1000
CCOc1cc(C(=O)O)c(F)cc1-c1cn(-c2ccccc2F)c2ncc(-c3c(C)noc3C)cc12 [P-0377, 4-(5-(3,5-dimethylisoxazol-4-yl)-1-(2-fluorophenyl)-1H-pyrrolo[2,3-b]pyridin-3-yl)-5-ethoxy-2-fluorobenzoic acid] | 0.1 to 1000
Cc1ncccc1-n1cc(-c2ccc(C(=O)O)cc2OC(F)(F)F)c2cc(-c3c(C)noc3C)cnc21 [P-0317, 4-(5-(3,5-dimethylisoxazol-4-yl)-1-(2-methylpyridin-3-yl)-1H-pyrrolo[2,3-b]pyridin-3-yl)-3-(trifluoromethoxy)benzoic acid] | 0.1 to 1000
Cc1noc(C)c1-c1cnc2c(c1)c(-c1ccc(C(=O)O)cc1OC(C)C)c(C)n2C(C1CC1)C1CC1 [P-0342, 4-(1-(dicyclopropylmethyl)-5-(3,5-dimethylisoxazol-4-yl)-2-methyl-1H-pyrrolo[2,3-b]pyridin-3-yl)-3-isopropoxybenzoic acid] | 0.1 to 1000
CCOc1cc(C(=O)O)c(F)c(OCC)c1-c1cn(C2CCOCC2)c2ncc(-c3c(C)noc3C)cc12 [P-0374, 4-(5-(3,5-dimethylisoxazol-4-yl)-1-(tetrahydro-2H-pyran-4-yl)-1H-pyrrolo[2,3-b]pyridin-3-yl)-3,5-diethoxy-2-fluorobenzoic acid] | 0.1 to 1000
COc1cc(C(=O)O)ncc1-c1cn(-c2ccncc2Cl)c2ncc(-c3c(C)noc3C)cc12 [P-0324, 5-(1-(3-chloropyridin-4-yl)-5-(3,5-dimethylisoxazol-4-yl)-1H-pyrrolo[2,3-b]pyridin-3-yl)-4-methoxypicolinic acid] | 0.1 to 1000
Cc1noc(C)c1-c1cnc2c(c1)c(-c1c(F)cc(C(=O)O)cc1OC(C)C)cn2C(C1CC1)C1CC1 [P-0369, 4-(1-(dicyclopropylmethyl)-5-(3,5-dimethylisoxazol-4-yl)-1H-pyrrolo[2,3-b]pyridin-3-yl)-3-fluoro-5-isopropoxybenzoic acid] | 0.1 to 1000
Cc1noc(C)c1-c1cnc2c(c1)c(-c1ccc(C(=O)O)cc1OC(F)(F)F)cn2CC1(C#N)CCC1 [P-0364, 4-(1-((1-cyanocyclobutyl)methyl)-5-(3,5-dimethylisoxazol-4-yl)-1H-pyrrolo[2,3-b]pyridin-3-yl)-3-(trifluoromethoxy)benzoic acid] | 0.1 to 1000
Cc1noc(C)c1-c1cnc2c(c1)c(-c1ccc(C(=O)O)cc1OC1CCC1)cn2-c1cnn(C(F)F)c1C [P-0353, 3-cyclobutoxy-4-(1-(1-(difluoromethyl)-5-methyl-1H-pyrazol-4-yl)-5-(3,5-dimethylisoxazol-4-yl)-1H-pyrrolo[2,3-b]pyridin-3-yl)benzoic acid] | 0.1 to 1000
Cc1nn(CC(=O)N(C)C)cc1-n1cc(-c2ccc(C(=O)O)cc2OC(F)(F)F)c2cc(-c3c(C)noc3C)cnc21 [P-0366, 4-(1-(1-(2-(dimethylamino)-2-oxoethyl)-3-methyl-1H-pyrazol-4-yl)-5-(3,5-dimethylisoxazol-4-yl)-1H-pyrrolo[2,3-b]pyridin-3-yl)-3-(trifluoromethoxy)benzoic acid] | 0.1 to 1000
Cc1noc(C)c1-c1cnc2c(c1)c(-c1ccc(C(=O)O)cc1OC(F)(F)F)cn2C1CCCC1 [P-0382, 4-(1-cyclopentyl-5-(3,5-dimethylisoxazol-4-yl)-1H-pyrrolo[2,3-b]pyridin-3-yl)-3-(trifluoromethoxy)benzoic acid] | 0.1 to 1000
Cc1noc(C)c1-c1cnc2c(c1)c(-c1ccc(C(=O)O)cc1OC(F)(F)F)cn2-c1ccc(C(=O)O)cc1 [P-0322, 4-(1-(4-carboxyphenyl)-5-(3,5-dimethylisoxazol-4-yl)-1H-pyrrolo[2,3-b]pyridin-3-yl)-3-(trifluoromethoxy)benzoic acid] | 0.1 to 1000
CCOc1cc(C(=O)O)cc(Cl)c1-c1cn(C(C2CC2)C2CC2)c2ncc(-c3c(C)noc3C)cc12 [P-0370, 3-chloro-4-(1-(dicyclopropylmethyl)-5-(3,5-dimethylisoxazol-4-yl)-1H-pyrrolo[2,3-b]pyridin-3-yl)-5-ethoxybenzoic acid] | 0.1 to 1000
Cc1noc(C)c1-c1cnc2c(c1)c(-c1c(F)cc(C(=O)O)cc1OCC(F)F)cn2-c1ccccc1 [P-0327, 3-(2,2-difluoroethoxy)-4-(5-(3,5-dimethylisoxazol-4-yl)-1-phenyl-1H-pyrrolo[2,3-b]pyridin-3-yl)-5-fluorobenzoic acid] | 0.1 to 1000
Cc1noc(C)c1-c1cnc2c(c1)c(-c1ccc(C(=O)O)cc1OC(C)C)cn2-c1cnn(C(F)F)c1C [P-0354, 4-(1-(1-(difluoromethyl)-5-methyl-1H-pyrazol-4-yl)-5-(3,5-dimethylisoxazol-4-yl)-1H-pyrrolo[2,3-b]pyridin-3-yl)-3-isopropoxybenzoic acid] | 0.1 to 1000
Cc1noc(C)c1-c1cnc2c(c1)c(-c1c(Cl)cc(C(=O)O)cc1OC(F)(F)F)cn2-c1cnc(C2CC2)nc1 [P-0386, 3-chloro-4-(1-(2-cyclopropylpyrimidin-5-yl)-5-(3,5-dimethylisoxazol-4-yl)-1H-pyrrolo[2,3-b]pyridin-3-yl)-5-(trifluoromethoxy)benzoic acid] | 0.1 to 1000
Cc1noc(C)c1-c1cnc2c(c1)c(-c1ccc(C(=O)O)cc1OC(F)(F)F)cn2-c1ccc(C(N)=O)cc1 [P-0323, 4-(1-(4-carbamoylphenyl)-5-(3,5-dimethylisoxazol-4-yl)-1H-pyrrolo[2,3-b]pyridin-3-yl)-3-(trifluoromethoxy)benzoic acid] | 0.1 to 1000
Cc1nn(CC(C)(C)O)cc1-n1cc(-c2ccc(C(=O)O)cc2OC(F)(F)F)c2cc(-c3c(C)noc3C)cnc21 [P-0365, 4-(5-(3,5-dimethylisoxazol-4-yl)-1-(1-(2-hydroxy-2-methylpropyl)-3-methyl-1H-pyrazol-4-yl)-1H-pyrrolo[2,3-b]pyridin-3-yl)-3-(trifluoromethoxy)benzoic acid] | 0.1 to 1000
Cc1noc(C)c1-c1cnc2c(c1)c(-c1ccc(C(=O)O)cc1OC(C)C)cn2C1CCOCC1 [P-0357, 4-(5-(3,5-dimethylisoxazol-4-yl)-1-(tetrahydro-2H-pyran-4-yl)-1H-pyrrolo[2,3-b]pyridin-3-yl)-3-isopropoxybenzoic acid] | 0.1 to 1000
CCOc1cc(C(=O)O)cc(Cl)c1-c1cn(C2CCOCC2)c2ncc(-c3c(C)noc3C)cc12 [P-0371, 3-chloro-4-(5-(3,5-dimethylisoxazol-4-yl)-1-(tetrahydro-2H-pyran-4-yl)-1H-pyrrolo[2,3-b]pyridin-3-yl)-5-ethoxybenzoic acid] | 0.1 to 1000
Cc1noc(C)c1-c1cnc2c(c1)c(-c1c(Cl)cc(C(=O)O)cc1OC(F)(F)F)cn2C1CCOCC1 [P-0355, 3-chloro-4-(5-(3,5-dimethylisoxazol-4-yl)-1-(tetrahydro-2H-pyran-4-yl)-1H-pyrrolo[2,3-b]pyridin-3-yl)-5-(trifluoromethoxy)benzoic acid] | 0.1 to 1000
Cc1noc(C)c1-c1cnc2c(c1)c(-c1ccc(C(=O)O)c(C(F)(F)F)c1)cn2C(c1ccccn1)C1CCCC1 (stereo not shown) [P-0029, 4-(1-(cyclopentyl(pyridin-2-yl)methyl)-5-(3,5-dimethylisoxazol-4-yl)-1H-pyrrolo[2,3-b]pyridin-3-yl)-2-(trifluoromethyl)benzoic acid] | 0.1 to 1000
